Earlier results in patent US6793912B2, “Treatment of cancers by inhalation of stable platinum-containing formulations” (Transave Inc., priority 2001, dated 2004).

Conditions: administered by inhalation vs intravenously

**Q.** With `N.N.[Cl][Pt][Cl]` [Cisplatin, cis-diamminedichloroplatinum(II)] as the compound, how does the “dose required to elicit a response in animal models, more effective in the lung than intravenously” value read?
**A.** Its value is 10-100 fold.
